According to patent US10772885B2, “Composition for treating ocular diseases and methods of usage and making” (REYOUNG (SUZHOU) BIOLOGY SCIENCE & TECHNOLOGY CO., LTD., priority 2016, dated 2020):

Test system: CNV
Experiment: Laser photocoagulation-induced CNV in rats (FP/FFA, fluorescein leakage grading)
Type: in vivo, Brown Norway (BN) rats
Conditions: for Mean fluorescein leakage score vs model group / Ratio of grade 3 light spots vs model group: after treatment
Procedure: Specific-pathogen-free (SPF) grade Brown Norway (BN) rats, half male and half female, were treated with fundus laser photocoagulation, the date of which was counted as D0. At D8, 32 rats with similar areas of fluorescence leakage were selected, separated to 8 groups, with each group including 4 rats (half male and half female): • Group 1 is a model group without any treatment. • Group 2 is a positive control group, in which Conbercept was injected into the vitreous cavity of the rats' eyes at the dosage of 50 μg/eye and […]. • In group 3, both eyes of the rats were administered with nintedanib ethanesulfonate at the dosage of 125 μg/eye and 6 times per day from day 8 and day 15 (D8˜D15). • In group 4, both eyes of the rats were administered with nintedanib ethanesulfonate at the dosage of 25 μg/eye and 6 times per day from day 8 and day 15 (D8˜D15). • In group 5, both eyes of the rats were administered with nintedanib ethanesulfonate at the dosage of 5 μg/eye and 6 times per day from day 8 and day 15 (D8˜D15). • In group 6, both eyes of the rats were administered with nintedanib ethanesulfonate at the dosage of 2.5 μg/eye and 6 times per day from day 8 and day 15 (D8˜D15). • In group 7, both eyes of the rats were administered with nintedanib ethanesulfonate at the dosage of 0.5 μg/eye and 6 times per day from day 8 and day 15 (D8 D15). • In […], both eyes of the rats were administered with nintedanib ethanesulfonate at the dosage of 0.1 μg/eye and 6 times per day from day 8 and day 15 (D8 D15).
All rats were tested with fundus photography (“FP”) and fundus fluorescein angiography (“FFA”) one day before administration and 8 days after administration. The degree of CNV was graded according to the degree of fluorescence leakage. The results were used to evaluate the effect of nintedanib ethanesulfonate on rat CNV, the results of which are shown in FIG. 2.
The ratio is calculate by comparing the early-phase and last-phase fluorescein angiograms. The fluorescence leakage of the light spots was graded as follows: grade 0 (no leakage); grade 1 (slight leakage, leakage area is 1%-50% of the light spot size); grade 2 (moderate leakage, leakage area is 50%-100% of the light spot size); grade 3 (strong leakage, leakage area is larger than the light spot size). The ratios of light spots for certain grade were calculated as follows: Ratio of light spot (%)=(the number of light spot at certain grade÷the sum of four kinds of light spots)×100.
The mean fluorescein leakage score is calculated as follows: Mean fluorescein leakage score=[(number of grade 0 light spot×0)+(number of grade 1 light spot×1)+(number of grade 2 light spot×2)+(number of grade 3 light spot×3)]÷the sum of four kinds of light spots

[1] = positive control group, 50 μg/eye into the vitreous cavity
[2] = groups 3-6 (125, 25, 5, 2.5 μg/eye)

Row | Compound | Mean fluorescein leakage score vs model group [1] | Ratio of grade 3 light spots vs model group [1] | Ratio of grade 1 light spots vs positive control group (all groups) | Ratios of light spots, mean fluorescein leakage score and development of CNV (eye drops at 125, 25, 5, 2.5, 0.5 μg/eye) | Ratio of grade 1 light spots vs positive control group (fifth group (5 μg/eye), p≤0.05) | Leakage vs positive control group (group 5 (5 μg/eye), p≤0.05) | Ratio of grade 3 light spots vs positive control group [2] | Mean fluorescein leakage score vs model group [2] | Ratio of grade 3 light spots vs model group [2] | Ratio of grade 1 light spots vs model group (groups 3-6 (125, 25, 5, 2.5 μg/eye), p≤0.05) | Adverse reactions (groups 3 and 4 (125 and 25 μg/eye, 6 times per day, D8-D15), some of the animals) | Inhibition of CNV in rats (groups 4-6 (25, 5, 2.5 μg/eye), 1 week after photocoagulation) | Mean fluorescein leakage score (groups 7 and 8 (0.5 and 0.1 μg/eye)) | Adverse reactions (other groups (5, 2.5, 0.5, 0.1 μg/eye, 6 times per day, D8-D15)) | Ratio of the level 0 and level 2 light spot vs positive control group (other groups, p>0.05) | Inhibition of leakage vs positive control group (printed: first group) | Leakage caused by CNV (rat, in vivo)
1 | Conbercept: Monoclonal antibody or fusion protein targeting VEGF, developed by a Chinese company and launched in 2013; positive control | significantly decreased | significantly decreased | – | – | – | – | – | – | – | – | – | – | – | – | – | – | –
2 | COC(=O)c1ccc2c(c1)NC(=O)/C2=C(\Nc1ccc(N(C)C(=O)CN2CCN(C)CC2)cc1)c1ccccc1 [nintedanib ethanesulfonate] | – | – | increased | can inhibit | significantly increased | significantly decreased | lower | significantly decreased | significantly decreased | increased | corneal opacity | significantly inhibited the CNV | no statistically significant difference | did not experience any significantly adverse reactions | no significant difference | slightly stronger | can inhibit the leakage caused by CNV
